According to patent US7767625B2 (dated 2010):

C=Cc1c(NC(=O)c2cn(C)nc2C(F)(F)F)cccc1C(C)(C)C
melting point: 118 to 119 °C
